Results as given in ChEMBL document CHEMBL1201862, “PubChem BioAssay data set” (2004).
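These data come from cells grown in 96-well plates and exposed to compound for 48 hours at five concentrations. At the GI50, growth is halved.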 Active and inactive are the calls of the source. Cut-off read from the data, not from the text of the source: active = GI50 up to about 1.1 µM and inactive = higher.

Tests used:
Test in all cases: inhibition of tumour cell growth, NCI panel, 48 h
RXF 393 = test system: RXF 393
DU-145 = test system: DU-145
Malme-3M = test system: Malme-3M
CAKI-1 = test system: CAKI-1
MOLT-4 = test system: MOLT-4
NCI-H23 = test system: NCI-H23
SK-MEL-2 = test system: SK-MEL-2
SK-OV-3 = test system: SK-OV-3
NCI-H522 = test system: NCI-H522
IGROV-1 = test system: IGROV-1
HCC 2998 = test system: HCC 2998
T47D = test system: T47D
CCRF-CEM = test system: CCRF-CEM
SF-295 = test system: SF-295
UACC-257 = test system: UACC-257
HOP-62 = test system: HOP-62
MDA-MB-435 = test system: MDA-MB-435
OVCAR-4 = test system: OVCAR-4
RPMI-8226 = test system: RPMI-8226
U-251 = test system: U-251

In the case of `CCNC(=S)NNC(=O)C12CC3CC(CC(C3)C1)C2`, the GI50 (RXF 393) is reported as > 100 µM (inactive), the GI50 (DU-145) is reported as > 100 µM (inactive) and the GI50 (Malme-3M) is reported as > 100 µM (inactive). The GI50 (CAKI-1) was > 100 µM (inactive), the GI50 (MOLT-4) was > 100 µM (inactive) and the GI50 (NCI-H23) was > 100 µM (inactive). The GI50 (SK-MEL-2) was > 100 µM (inactive), the GI50 (SK-OV-3) was > 100 µM (inactive) and the GI50 (NCI-H522) was > 100 µM (inactive). The GI50 (IGROV-1) was > 100 µM (inactive), the GI50 (HCC 2998) was > 100 µM (inactive) and the GI50 (T47D) was > 100 µM (inactive). The GI50 (CCRF-CEM) was > 100 µM (inactive), the GI50 (SF-295) was > 100 µM (inactive) and the GI50 (UACC-257) was > 100 µM (inactive). The GI50 (HOP-62) was > 100 µM (inactive), the GI50 (MDA-MB-435) was > 100 µM (inactive) and the GI50 (OVCAR-4) was > 100 µM (inactive). The GI50 (RPMI-8226) was > 100 µM (inactive) and the GI50 (U-251) was > 100 µM (inactive).
For `COc1cccc(C(=O)Nc2c3ccccc3nc3ccccc23)c1OC`, the GI50 (RXF 393) was 23.4 µM (inactive), the GI50 (DU-145) was > 100 µM (inactive) and the GI50 (Malme-3M) was > 100 µM (inactive). The GI50 (CAKI-1) was > 100 µM (inactive), the GI50 (MOLT-4) was > 100 µM (inactive) and the GI50 (NCI-H23) was > 100 µM (inactive). The GI50 (SK-MEL-2) was > 100 µM (inactive), the GI50 (SK-OV-3) was 51.9 µM (inactive) and the GI50 (NCI-H522) was 29.2 µM (inactive). For the same molecule, the GI50 (IGROV-1) was > 100 µM (inactive), the GI50 (HCC 2998) was > 100 µM (inactive) and the GI50 (T47D) was > 100 µM (inactive). For the same molecule, the GI50 (CCRF-CEM) was > 100 µM (inactive), the GI50 (SF-295) was 39.1 µM (inactive) and the GI50 (UACC-257) was > 100 µM (inactive). For the same molecule, the GI50 (HOP-62) was 45.7 µM (inactive), the GI50 (MDA-MB-435) was > 100 µM (inactive) and the GI50 (OVCAR-4) was > 100 µM (inactive). The GI50 (RPMI-8226) was > 100 µM (inactive) and the GI50 (U-251) was > 100 µM (inactive).
In the case of `O=C(O)CCSCc1ccccc1`, the GI50 (RXF 393) is reported as > 100 µM (inactive), the GI50 (DU-145) is reported as > 100 µM (inactive) and the GI50 (Malme-3M) is reported as > 100 µM (inactive). For the same molecule, the GI50 (CAKI-1) was > 100 µM (inactive), the GI50 (MOLT-4) was > 100 µM (inactive) and the GI50 (NCI-H23) was > 100 µM (inactive). The GI50 (SK-MEL-2) was > 100 µM (inactive), the GI50 (SK-OV-3) was > 100 µM (inactive) and the GI50 (NCI-H522) was > 100 µM (inactive). For the same molecule, the GI50 (IGROV-1) was > 100 µM (inactive), the GI50 (HCC 2998) was > 100 µM (inactive) and the GI50 (T47D) was > 100 µM (inactive). The GI50 (CCRF-CEM) was > 100 µM (inactive), the GI50 (SF-295) was > 100 µM (inactive) and the GI50 (UACC-257) was > 100 µM (inactive). For the same molecule, the GI50 (HOP-62) was > 100 µM (inactive), the GI50 (MDA-MB-435) was > 100 µM (inactive) and the GI50 (OVCAR-4) was > 100 µM (inactive). For the same molecule, the GI50 (RPMI-8226) was > 100 µM (inactive) and the GI50 (U-251) was > 100 µM (inactive).
For `Cc1c(-c2ccccc2)c(C#N)c2nnn(C3CCCCC3)c(=O)n12`, the GI50 (RXF 393) was 19.8 µM (inactive), the GI50 (DU-145) was > 100 µM (inactive) and the GI50 (Malme-3M) was > 100 µM (inactive). The GI50 (CAKI-1) was 0.425 µM (active), the GI50 (NCI-H23) was > 100 µM (inactive) and the GI50 (SK-MEL-2) was 31.6 µM (inactive). The GI50 (SK-OV-3) was 60.3 µM (inactive), the GI50 (NCI-H522) was > 100 µM (inactive) and the GI50 (IGROV-1) was 60.4 µM (inactive). The GI50 (HCC 2998) was > 100 µM (inactive), the GI50 (T47D) was > 100 µM (inactive) and the GI50 (CCRF-CEM) was > 100 µM (inactive). The GI50 (SF-295) was 29.5 µM (inactive), the GI50 (UACC-257) was > 100 µM (inactive) and the GI50 (HOP-62) was 14.7 µM (inactive). For the same molecule, the GI50 (MDA-MB-435) was > 100 µM (inactive), the GI50 (OVCAR-4) was 40.6 µM (inactive) and the GI50 (RPMI-8226) was 47.4 µM (inactive). The GI50 (U-251) was 53.2 µM (inactive).
For `O=[N+]([O-])/C(Cl)=C(/C(Cl)=C(Cl)Cl)N1CCCCC1`, the GI50 (RXF 393) was 7.26 µM (inactive), the GI50 (DU-145) was 14 µM (inactive) and the GI50 (Malme-3M) was 2.7 µM (inactive). For the same molecule, the GI50 (CAKI-1) was 11.8 µM (inactive), the GI50 (MOLT-4) was 3.27 µM (inactive) and the GI50 (NCI-H23) was 8.49 µM (inactive). The GI50 (SK-MEL-2) was 25.2 µM (inactive), the GI50 (SK-OV-3) was 28.5 µM (inactive) and the GI50 (NCI-H522) was 6.44 µM (inactive). For the same molecule, the GI50 (IGROV-1) was 10.6 µM (inactive), the GI50 (HCC 2998) was 15.9 µM (inactive) and the GI50 (T47D) was 11.8 µM (inactive). For the same molecule, the GI50 (CCRF-CEM) was 4.73 µM (inactive), the GI50 (SF-295) was 23.7 µM (inactive) and the GI50 (HOP-62) was 22.6 µM (inactive). The GI50 (MDA-MB-435) was 8.81 µM (inactive), the GI50 (OVCAR-4) was 13.8 µM (inactive) and the GI50 (RPMI-8226) was 4.43 µM (inactive). The GI50 (U-251) was 11.8 µM (inactive).
For `OCCOCCO[P+]1(OCCOCCO)n2c3ccc2C(c2ccccc2)=C2C=CC(=N2)C(c2ccccc2)=c2ccc(n21)=C(c1ccccc1)C1=NC(=C3c2ccccc2)C=C1`, the GI50 (RXF 393) was 0.548 µM (active), the GI50 (DU-145) was 0.112 µM (active) and the GI50 (Malme-3M) was 0.119 µM (active). For the same molecule, the GI50 (CAKI-1) was 1.68 µM (inactive), the GI50 (MOLT-4) was 0.0267 µM (active) and the GI50 (NCI-H23) was 0.105 µM (active). For the same molecule, the GI50 (SK-MEL-2) was 0.0395 µM (active), the GI50 (SK-OV-3) was 0.0859 µM (active) and the GI50 (NCI-H522) was 0.186 µM (active). For the same molecule, the GI50 (IGROV-1) was 0.0261 µM (active), the GI50 (HCC 2998) was 0.0378 µM (active) and the GI50 (T47D) was 0.04 µM (active). For the same molecule, the GI50 (CCRF-CEM) was 0.0231 µM (active), the GI50 (SF-295) was 0.281 µM (active) and the GI50 (UACC-257) was 0.0268 µM (active). For the same molecule, the GI50 (HOP-62) was 0.379 µM (active), the GI50 (MDA-MB-435) was 0.0316 µM (active) and the GI50 (OVCAR-4) was 0.209 µM (active). For the same molecule, the GI50 (RPMI-8226) was 0.0142 µM (active).
